Test system: human foreskin fibroblasts (HFF1y, Beijing Stem Cell Bank)
Assay: Transdifferentiation of human foreskin fibroblasts into neurons in vitro (induction culture solution, then mature culture solution)
Format: cell-based
Conditions: for rank of gene expression level of neuronal markers (MAPT and MAP2) by myosin inhibitor in the culture solutions: induction 7 days, mature solution (with isoxazole) 7 days, Examples 8-12
Protocol: After removing the fibronectin solution, the human foreskin fibroblasts (HFF1y, Beijing Stem Cell Bank) were evenly inoculated at 2×10^6 cells per vessel, culturing with basal medium (high glucose DMEM (Gibco, C12430500BT) plus 10% fetal bovine serum (Gibco, 16000-044)) for 12 hours. After removing the basal medium, the cells were washed with PBS.
An induction culture solution was added to the HFF1y vessel after undergoing the above treatment to culture for 1-7 days.
After the above induction culture for 1-7 days, a mature culture solution was added to HFF1y to culture for 7-45 days.

[1] = induction solution without Ble 7 days, then mature solution with ISX9 and without Ble 7 days

SMILES | cell morphology (micrograph) [1] | expressions of canonical neuronal markers (GFAP, TUJ1, MAP2, MAPT, STMN1, NCAM) and synapse-related proteins (NEFH, PSD95, SYN1, SYT) [1] | gene expression of fibroblast marker FSP1 [1] | gene expression of neural transcription factors (ASCL1, BRN2, NEUROD1) [1] | rank of gene expression level of neuronal markers (MAPT and MAP2) by myosin inhibitor in the culture solutions | RNA-seq, GO cluster analysis of up-regulated genes (induction culture system comprising only Ble, p<0.05) | cell morphology after induction culture solution only (induction solution 25 μM Ble, 1-7 days, no isoxazole)
O=C(NC1CC1)c1cc(-c2cccs2)on1 [ISX9, isoxazole 9] | do not appear neuron-like morphology | significantly up-regulated | significantly down-regulated | up-regulated |  |  | 
Cc1ccc2c(c1)C(=O)[C@]1(O)CCN(c3ccccc3)C1=N2 [Ble, (−)-Blebbistatin] |  |  |  |  | highest | up-regulated genes in induced cells were enriched in the neuronal fate-related pathways | obvious neuronal morphology, small and round cell bodies, and rich and long synapses
Cc1ccc2c(c1)C(=O)[C@]1(OC(=O)c3ccccc3)CCN(c3ccccc3)C1=N2 [Ble-OB, (−)-Blebbistatin O-Benzoate] |  |  |  |  | third |  | 

Source: patent publication US20230365927A1, “COMPOSITION AND METHOD FOR […] NON-NEURONAL CELLS INTO NEURONS” (INSTITUTE OF ZOOLOGY, CHINESE ACADEMY OF SCIENCES, priority 2020, published 2023)
